Results taken from a melting point compilation (Tetko et al.; mined from patent text by program, amines drawn as free bases though some values may be those of a salt).

SMILES | melting point
Cc1cccc(N2CCN(CCc3c(C)nc4ccccn4c3=O)CC2)c1 | 95.5 to 96.5 °C
Cc1cc(-c2ccc(C(F)(F)F)cc2)nc(-c2ccc(C(=O)O)cc2)n1 | 272 to 275 °C
CCN(Cc1ccc(Cl)cc1Cl)C(=O)n1oc(C)c(Cl)c1=O | 80.5 to 81.5 °C
COC1CCc2c(c(C)[nH]c(=O)c2C#N)C1 (stereo not given) | 257 to 259 °C
O=C(O)C1=NN(c2cccc(Cl)c2)C(c2ccccc2)CC1 (stereo not given) | 157 to 158 °C
O=C1CC(=Cc2c[nH]c3ccccc23)C(=O)O1 | 90 to 91 °C
O=c1c(Cn2cncn2)cc2cc(Br)ccc2n1-c1ccccc1 | 237 to 240 °C
COc1ccc(F)cc1C(C)(C)CC(O)(Cc1cc(C)cc(C)n1)C(F)(F)F (stereo not given) | 95 to 98 °C
CC(=O)NCCC1CCc2ccc3nn(C)c(C)c3c21 (stereo not given) | 146 to 149 °C
CS(=O)(=O)C(=[N+]=[N-])S(C)(=O)=O | 120 to 124 °C
COc1cc2ncnc(N3CCN(C(=S)Nc4ccncc4)CC3)c2cc1OC | 218 to 220 °C
Cc1ccccc1-c1nc(-c2cccc(Cl)c2)n(C)n1 | 86 to 88 °C
O=[N+]([O-])c1ccc(Cl)c(CN2CCCCC2)c1Cl | 67 to 68 °C
COc1cn(-c2ccc(N3CCOCC3)cc2F)nc(-c2ccnn2-c2ccccc2)c1=O | 226 to 228 °C
CCC(N1CCC(Oc2c(F)c(F)c(F)c(F)c2F)CC1)n1c(=O)[nH]c2ccccc21 (stereo not given) | 117 to 120 °C
CC(C)(C)OC(=O)Nc1cc(N2CCOCC2)cc(C(F)(F)F)c1 | 146 to 148 °C
O=Cc1c2ccccc2c(C=O)c2c1ccc1ccccc12 | 197 to 198 °C
COCC(C)(C)Cc1cc(N(C)C)ccn1 | 56 to 58 °C
CC1SC(=O)NN=C1c1ccc2c(c1)C(C)(C)C(=O)N2C(=O)c1ccccc1 (stereo not given) | 200 °C
Clc1ccc(C(=C2SCCCS2)C2CC2)cc1 | 91 to 95 °C
COc1ccc(C(C)=O)c(CC(=O)O)c1 | 153 to 155 °C
CCSc1cc(C=NO)c(Cl)cn1 | 128 to 130 °C
O=C(CCCCc1ccccc1)Nc1ccc(C(=O)O)cc1 | 227 to 230 °C
CCc1nccn2c(-c3ccnc(NCC(C)(C)O)n3)c(-c3ccc(F)cc3F)nc12 | 164 to 165 °C
COc1cc2ccc(C(=O)c3ccccc3)cc2cc1OC | 124 to 125 °C

SMILES | melting point
CCOC(=O)N1Cc2cc(=O)[nH]nc2C(C)C1 (stereo not given) | 125 to 127 °C
COc1cc2c(cc1OC)C(=O)NN(CCCO)C2 | 178 °C
CC(C)c1cc(S(C)(=O)=O)c(C(C)C)cc1C#N | 134 to 137 °C
CCCCC(C)(Cc1ccc(OCCNC(=O)c2ccc(-c3ccccn3)cc2)cc1)C(=O)O (stereo not given) | 106 to 108 °C
CCOC(=O)c1[nH]c2c(c1C)CC1CN(CC)CCC1(c1cccc(O)c1)C2 (stereo not given) | 195 to 197 °C
CNc1coc2ccccc2c1=S | 134 °C
Cc1nc(Cl)c(C#N)c(NCc2cccnc2)n1 | 165 to 167 °C
O=C1CC(c2ccccc2)NC(=O)C1C(=O)c1ccccc1[N+](=O)[O-] (stereo not given) | 146 to 150 °C
CC1CC(n2c(NC3CC3)nc3cc(Cl)c(Cl)cc32)C(O)C1O (stereo not given) | 231 to 233 °C
COC(=O)CCCCC(C[N+](=O)[O-])SCC(=O)O (stereo not given) | 85 to 91 °C
CCCCCCCCn1c(=O)n(CCN2CCN(c3ccccc3OC)CC2)c(=O)c2cscc21 | 82 to 84 °C
OOC12C=CC=CC=CC=CC=CC1=CC=CO2 (stereo not given) | 104 to 106 °C
O=C(Nc1ccc(C(=O)N2Cc3ccccc3Cc3ccccc32)cc1)c1ccccc1Cl | 110 to 115 °C
OCc1ccc2c(Cl)cccc2c1 | 72 to 75 °C
Cc1cc(C)c2c(=O)n(CC(=O)N3CCOCC3)sc2n1 | 200 to 203 °C
N#CSCC(=O)N1CCCC1 | 95 to 96 °C
Cc1ncccc1CN1CCC(=C2c3ccc(Cl)cc3CCc3cccnc32)CC1 | 81.4 to 87.2 °C
COc1ccc(-c2ccc3c(C)c(OC)ccc3c2)cc1 | 136 to 138 °C
CC(=O)N1c2ccccc2[C@H](Nc2ccccc2C(=O)O)C[C@@H]1C (relative stereo) | 122 to 123 °C
Cc1c(C)c2c(c(C)c1N)C(c1ccc(C(C)C)cc1)C1(CCN(C)CC1)O2 (stereo not given) | 123 to 124 °C
CC(C)OCC(=O)CC1c2ccccc2C(=O)N1c1ccc2ccc(Cl)nc2n1 (stereo not given) | 200 °C
Cc1ccc2c(Cl)cc(I)c(O)c2n1 | 85 to 93 °C
Cc1cccc(COn2nnc3ccc(Cn4ccnc4)cc32)c1 | 120 °C
CNC(=S)NS(=O)(=O)c1cc(CCNC(=O)C=Cc2cccs2)ccc1OCC1CCCCO1 (stereo not given) | 80 °C
CCOC(=O)Nc1cc(N(C(=O)OCC)S(=O)(=O)CC)c(Br)cc1F | 142 to 143 °C

SMILES | melting point
Cc1noc(NS(=O)(=O)c2ccc(NC(=O)c3ccccc3)cc2-c2ccc(CC(C)C)cc2)c1C | 207 to 211 °C
O=[N+]([O-])c1ccc(OCCN2CC=C(c3ccc(F)cc3)CC2)cc1 | 104 to 107 °C
O=C(O)c1ccc2cc(OCCOc3ccc4c(CCO)c(C(=O)O)c(CCO)cc4c3)ccc2c1 | 240 °C
O=Cc1cc(-c2cccc(Cl)c2)c2cc(C(c3ccc(Cl)cc3)c3cccnc3)ccc2n1 (stereo not given) | 168 °C
CCc1cc(-c2cc(N)n3nc(-c4ccco4)nc3c2)ccn1 | 184 to 186 °C
O=C(O)c1ccccc1Sc1cccc(OCc2ccc3cc(Cl)ccc3n2)c1 | 177 to 179 °C
O=C(NCc1ccc(Cl)cc1)c1cn2c3c(cc(CN4CCOCC4)cc3c1=O)OC(c1ccc(O)cc1)C2 (stereo not given) | > 260 °C
CN(C)CCNc1ccc(C=O)c2sc3ccc(O)cc3c(=O)c12 | 219 to 220 °C
CN(Cc1ccc(C(=O)O)cc1)c1ccc(Cl)cc1 | 188 to 191 °C
COc1c2c(c(OC)c(OC)c1OC)CCC(CCI)CC2 | 75 to 82 °C
CCOc1c(OC)cc(C(=O)O)c(-c2c(C(=O)O)cc(OC)c3c2OCO3)c1OCC | 262 to 263 °C
O=C(O)C1=Cc2cc(Cl)c(Sc3ccccc3)cc2OC1C(F)(F)F (stereo not given) | 272 to 274 °C
O=C1Nc2ccccc2N(C(=O)CN2C(=O)CCCC2=O)C2CCC(Cc3ccccc3)C12 (stereo not given) | 220 to 221 °C
CC(=O)NC(C)c1ccc(CN2CCN(c3ccc(F)cc3)CC2)cc1 (stereo not given) | 101 to 103 °C
COc1ccc(-n2nc(Cl)cc2-c2ccc(OCCNC(N)=O)cc2)cc1 | 140 to 142 °C
COc1cc2c(cc1-c1cc(F)ccc1F)NC(=O)CC(c1cccc(C#N)c1)=N2 | 251 °C
CN(C)C1CCCCCCCCCCC1N(C)C(=O)c1ccc(C(F)(F)F)cc1 (stereo not given) | 69 to 70 °C
NCCn1cnc(-c2ccccc2)c1-c1ccccc1 | 96 to 98 °C
Clc1cc(CCCn2ccnc2)ccc1OCc1coc(-c2cccs2)n1 | 93 to 94 °C
CCCc1c(OCCCCCCc2cccc(OCCCCCC(=O)O)c2CCC(=O)O)ccc2c1OCCC2=O | 86 to 88 °C
COC(=O)[C@H](Cc1ccc(OS(=O)(=O)C(F)(F)F)cc1)NC(=O)OC(C)(C)C | 47 to 48 °C
CC(C)(C)c1cc2c(c(C(=O)Nc3ccc(S(=O)(=O)C(F)(F)F)cc3Cl)c1O)CCC2 | 172 to 173 °C
COc1ccc(C2=C(c3ccccc3)CCCc3cc(O)ccc32)cc1 | 232 to 233 °C
CCOC(=O)C(Cc1c[nH]c2c(C(=O)c3ccc(Cl)cc3)cccc12)C(=O)OCC | 197 to 201 °C
CCCCC(CC)C(=O)Nc1ccc2c(c1)c(Cc1ccc(C(=O)NS(=O)(=O)c3ccccc3)cc1OC)cn2C (stereo not given) | 169 to 171 °C

SMILES | melting point
COc1cccc(C(=O)OC(=C2C(=O)N(C(N)=O)c3cc(Cl)c(F)cc32)c2cccs2)c1 | 196 to 220 °C
Clc1nc2ccccc2c2[nH]c3ccccc3c12 | 249 to 250 °C
COc1cc(-c2ccccn2)cc([N+](=O)[O-])c1OC | 89 to 90 °C
CCC(=NO)c1ccc(OCCCCCCCc2cc(C)no2)cc1 | 88 to 89 °C
CC1Sc2c(C(=O)O)c(=O)c3cc(F)c(N4CCC(N(C)C)C4)c(Cl)c3n21 (stereo not given) | 161 to 162 °C
Cc1nnc(-c2ccnc(NC(=O)OC(C)(C)C)c2)o1 | 290 to 291 °C
CCCc1ccccc1Sc1c(C)n(CC(=O)O)c2ccc(NS(C)(=O)=O)cc12 | 160 °C
CC(C)(C)[C@@H](CO)NC(=O)[C@@H](CC(=O)OCc1ccccc1)n1ccc(-c2ccc(-c3ccc(C(N)=O)cc3)cc2)c1 | 201 to 203 °C
CCn1cc(C(=O)O)c(=O)c2cc(F)c(N3CCN(CCO)CC3)c(F)c21 | 225 to 228 °C
CCOP(=O)(OCC)C(c1cccnc1)C(O)c1ccccc1 (stereo not given) | 238 °C
CCSc1cc(C)nc(SCC)c1NC(=O)CCCCCCCSc1nc2ccccc2s1 | 94 to 96 °C
O=C1N(c2ccc(F)cc2)c2ccccc2C1(O)c1cc2c(cc1O)OCCO2 (stereo not given) | 195 to 200 °C
CCCCCCCCCCCCCCOC(=O)c1cc(N)cc(C(=O)OCCCCCCCCCCCCCC)c1 | 74 to 75 °C
Cc1ccc(-c2ccccc2C#N)cc1Br | 104 to 106 °C
CC(=O)Nc1cc2c(cc1[N+](=O)[O-])OCCCO2 | 139 to 140 °C
CC(=O)COc1ccc(Oc2ccc(F)cc2)cc1 | 56 to 57 °C
Cc1nc(-c2ccccc2)cc(-c2cccc(C#N)c2)c1NC(=O)CCN1CCOCC1 | 150 to 152 °C
COC1C(C)OC(ON(C)Cc2ccc(-c3ncn(-c4ccc(OC(F)(F)F)cc4)n3)cc2)C(OC)C1OC (stereo not given) | 93 to 100 °C
CCN(CC)C(=O)c1ccoc1-c1ccc(C(F)(F)F)cc1 | 45 to 48 °C
Cc1c(/C=C/c2cccc([N+](=O)[O-])c2C)cccc1[N+](=O)[O-] | 246 °C
Cc1cc(S(N)(=O)=O)ccc1NC(=O)CCl | 193 to 194 °C
COC(=O)C(Oc1cc(OCc2ccsc2)ccc1C#N)c1ccccc1 (racemic) | 112 to 114 °C
CCCCC(CC)(CO)C(=O)O (stereo not given) | 45 to 46 °C
CCOc1ccc(CC(=O)OCc2ccc(C#N)cc2)cc1 | 59 °C
Fc1ccc(Cn2c(NC3CCN(CCc4cn5ccccc5n4)CC3)nc3ccccc32)cc1 | 208 °C
